These are literature values, as cited in patent US11667640B2, “Mitoketoscins: mitochondrial-based therapeutics targeting ketone metabolism in cancer cells” (LUNELLA BIOTECH, INC., priority 2017, dated 2023).

Molecules are shown by their SMILES.

For the series, the target named is T1, ACAT1 (Homo sapiens, UniProt P24752).
T1 sequence (P24752 34-427): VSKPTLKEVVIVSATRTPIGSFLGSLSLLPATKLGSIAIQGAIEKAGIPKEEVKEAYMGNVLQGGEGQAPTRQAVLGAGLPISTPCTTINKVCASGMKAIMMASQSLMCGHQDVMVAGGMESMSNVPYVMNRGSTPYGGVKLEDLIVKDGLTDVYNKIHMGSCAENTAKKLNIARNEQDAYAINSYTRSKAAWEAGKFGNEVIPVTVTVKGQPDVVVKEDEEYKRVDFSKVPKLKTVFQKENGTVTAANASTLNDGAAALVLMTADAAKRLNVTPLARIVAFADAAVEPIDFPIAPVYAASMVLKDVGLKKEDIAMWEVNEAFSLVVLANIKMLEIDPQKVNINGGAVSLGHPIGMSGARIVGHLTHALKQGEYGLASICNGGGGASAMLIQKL
The following applies: Garcia-Bermudez et al, Mol Cell 2016.

As to `COC(=O)C1=CCCN(C)C1` [Arecoline], the ACAT1 inhibition entry is reported as “potential ACAT1 inhibitor”.
